# According to patent publication US7091185B2, “Periodic antimicrobial peptides” (Dow Global Technologies Inc., priority 2003, dated 2006):
# Read-outs that look alike come from different tables or passages of the source. Where no end group is shown, it is not given here.
# What was measured:
# [1] = tested on: E. coli ATCC 2592
# [2] = tested on: P. aeruginosa ATCC 10145
# [3] = tested on: S. aureus (methicillin resistant) ATCC 33591
# [4] = tested on: C. albicans 10231; assay type: cell-based
# Procedure, shortened: (§1)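 Broth microdilution per NCCLS, adapted for fungi with Sabouraud Dextrose Broth; KFAK-repeat peptide multimers in two-fold dilutions from 1,000 to 1 μg/ml. Growth by OD620 after overnight incubation; IC50 by sigmoidal fit, in duplicate, repeated at least twice.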
# [5] = tested on: Cr. Neoformans 32045; assay type: cell-based
# Procedure, shortened: as §1
# [6] = Red blood cell toxicity; assay type: cell-based; settings: red blood cells (RBC); RBCs; concentration required for 50% toxicity; read-out: TX50
# [7] = tested on: Red blood cells (RBC); test: Red blood cell toxicity; assay type: cell-based
# [8] = tested on: HeLa cell line; test: HeLa MTS cellular reduction toxicity assay; assay type: cell-based; settings: for TX50: 24 h, MTS
# Procedure, shortened: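 HeLa cells grown 48 h, then exposed to serial 2-fold peptide dilutions for 24 h at 37 °C, 5% CO2. MTS-PMS added for 1 h; absorbance at 490 nm compared with untreated cells. TX50 (50% toxicity concentration) from sigmoidal curve fit.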
# [9] = tested on: P. aeruginosa ATCC 15442; test: HMARQ biocidal kill activity; assay type: cell-based; settings: P. aeruginosa ATCC 15442 (gram−)
# Procedure, shortened: (§2)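 Inoculated sample matrix (200–300 μL) added to biocide in 96-well blocks alongside untreated controls; for kill-time runs organisms added after biocide. Viable counts by MPN serial 1:10 dilution in TSB with 50 μM resazurin indicator; values are ppm (μg/mL) giving 3.5 log kill versus untreated at 15 min or 24 h.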
# [10] = tested on: Staph. aureus ATCC 6538; test: HMARQ biocidal kill activity; assay type: cell-based; settings: Staph. aureus ATCC 6538 (gram+)
# Procedure, shortened: as §2
# [11] = Table 3, P aeruginosa 10145, gram−
# [12] = S. aureus (methicillin resistant) 33591, gram+
Substance,IC50 ([1]; ATCC 2592),MIC ([1]; ATCC 2592),IC50 ([2]; ATCC 10145),MIC ([2]; ATCC 10145),IC50 ([3]; ATCC 33591),MIC ([3]; ATCC 33591),IC50 [4]; 10231,MIC [4]; 10231,IC50 [5],MIC [5],HC50 at 24 h [6],% kill at 250 μg/ml [7],% kill at 500 μg/ml [8],TX50 [8],ppm needed for 3.5 log kill at 15 min [9],ppm needed for 3.5 log kill at 24 hr [9],ppm needed for 3.5 log kill at 15 min [10],ppm needed for 3.5 log kill at 24 hr [10],further results
"H-LKKLLKKLLKKLLKKLLKKLLKKLLKKL-OH [LKKL (7), LKKL LKKL LKKL LKKL LKKL LKKL LKKL]",41 µg/mL,62 to 125 µg/mL,96 µg/mL,125 µg/mL,252 µg/mL,>250 µg/mL,199 µg/mL,250 to 500 µg/mL,85 µg/mL,100 to 125 µg/mL,9 µg/mL,100%,−0.4%,25 µg/mL,125 ppm,8 ppm,4 ppm,125 ppm,–
"H-LKLKLKLKLKLKLKLK-OH [LK (8), LK LK LK LK LK LK LK LK]",65 µg/mL,>125 µg/mL,125 µg/mL,130 µg/mL,56 µg/mL,125 to 250 µg/mL,162 µg/mL,250 to 500 µg/mL,9.7 µg/mL,32 to 63 µg/mL,> 500 µg/mL,13%,43.5%,122 µg/mL,8 ppm,16 ppm,31 ppm,4 ppm,–
"H-LKLKLKLKLKLKLKLKLKLKLK-OH [LK (11), LK LK LK LK LK LK LK LK LK LK LK]",50 µg/mL,>125 µg/mL,51 µg/mL,62 µg/mL,111 µg/mL,>250 µg/mL,185 µg/mL,250 to 500 µg/mL,26 µg/mL,32 to 62 µg/mL,> 500 µg/mL,24%,43.8%,202 µg/mL,16 ppm,8 ppm,16 or less ppm,4 ppm,–
"H-RFARRFARRFARRFARRFARRFAR-OH [RFAR (6), RFAR RFAR RFAR RFAR RFAR RFAR]",12 µg/mL,31 to 62 µg/mL,25 µg/mL,32 µg/mL,15 µg/mL,31 to 62 µg/mL,114 µg/mL,125 to 250 µg/mL,35 µg/mL,62 to 125 µg/mL,176 µg/mL,72%,22.1%,159 µg/mL,31 ppm,31 ppm,>500 ppm,8 ppm,–
"KAAKKAAKKAAKKAAKKAAKKAAKKAAK [KAAK (7), KAAK KAAK KAAK KAAK KAAK KAAK KAAK]",261 µg/mL,–,>250 µg/mL,>250 µg/mL,>500 µg/mL,>500 µg/mL,262 µg/mL,>500 µg/mL,41 µg/mL,62 to 125 µg/mL,> 500 µg/mL,−6%,90.0%,>500 µg/mL,>500 ppm,125 ppm,>500 ppm,250 ppm,–
"KFAFKFAFKFAFKFAFKFAFKFAFKFAF [KFAF (7), KFAF KFAF KFAF KFAF KFAF KFAF KFAF]",>1000 µg/mL,>1000 µg/mL,250 µg/mL,>250 µg/mL,>500 µg/mL,>500 µg/mL,>500 µg/mL,>500 µg/mL,67 µg/mL,125 to 250 µg/mL,> 500 µg/mL,4%,76.8%,>500 µg/mL,63 ppm,63 ppm,>500 ppm,125 ppm,–
"KFFKKFFKKFFKKFFKKFFKKFFKKFFK [KFFK (7), KFFK KFFK KFFK KFFK KFFK KFFK KFFK]",–,–,–,–,–,–,–,–,–,–,12 µg/mL,–,−0.5%,30 µg/mL,16 ppm,8 ppm,4 ppm,63 ppm,"IC50 ([1]; E. coli 2592, gram−): 63 µg/mL; MIC ([1]; E. coli 2592, gram−): >125 µg/mL; IC50 [2, 11]: 87 µg/mL; MIC [2, 11]: 125 µg/mL; IC50 [3, 12]: 133 µg/mL; MIC [3, 12]: >250 µg/mL; IC50 ([4]; yeast C. albicans 10231): 183 µg/mL; MIC ([4]; yeast C. albicans 10231): 250 to 500 µg/mL; IC50 ([5]; fungus Cr. Neoformans 32045): 55 µg/mL; MIC ([5]; fungus Cr. Neoformans 32045): 62 to 125 µg/mL; % kill at 250 μg/ml ([7]; RBCs, 250 μg/ml): 100%"
"KFKKFKKFKKFKKFKKFK [KFK (6), KFK KFK KFK KFK KFK KFK]",39 µg/mL,62 to 125 µg/mL,74 µg/mL,125 µg/mL,322 µg/mL,>500 µg/mL,164 µg/mL,250 to 500 µg/mL,33 µg/mL,40 to 62 µg/mL,> 500 µg/mL,−7%,77.8%,>500 µg/mL,>500 ppm,125 ppm,>500 ppm,–,–
"KFKKFKKFKKFKKFKKFKKFK [KFK (7), KFK KFK KFK KFK KFK KFK KFK]",18 µg/mL,31 to 62 µg/mL,87 µg/mL,125 µg/mL,141 µg/mL,>500 µg/mL,175 µg/mL,250 to 500 µg/mL,26 µg/mL,40 to 62 µg/mL,> 500 µg/mL,−7%,80.9%,>500 µg/mL,>500 ppm,125 ppm,>500 ppm,–,–
